Test results: ChEMBL document CHEMBL1201862, “PubChem BioAssay data set” (2004)
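Test compounds were applied to cells in 96-well plates for 48 hours at 5 doses. The concentration for 50% growth inhibition is given as GI50.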 The source made the active and inactive calls. Rule as the data show it: active = GI50 up to about 1.1 µM and inactive = higher.

How the values were obtained:
Experiment in all cases: NCI tumour cell line growth inhibition, 48 h
A549 = system: A549
HCC 2998 = system: HCC 2998
HCT-116 = system: HCT-116
HCT-15 = system: HCT-15
HT-29 = system: HT-29
IGROV-1 = system: IGROV-1
MDA-MB-435 = system: MDA-MB-435
NCI-H226 = system: NCI-H226
NCI-H23 = system: NCI-H23
NCI-H460 = system: NCI-H460
NCI/ADR-RES = system: NCI/ADR-RES
PC-3 = system: PC-3
RPMI-8226 = system: RPMI-8226
SF-268 = system: SF-268
SK-OV-3 = system: SK-OV-3
T47D = system: T47D
TK-10 = system: TK-10
U-251 = system: U-251
UACC-257 = system: UACC-257
UACC-62 = system: UACC-62

Compound	GI50 (A549)	GI50 (HCC 2998)	GI50 (HCT-116)	GI50 (HCT-15)	GI50 (HT-29)	GI50 (IGROV-1)	GI50 (MDA-MB-435)	GI50 (NCI-H226)	GI50 (NCI-H23)	GI50 (NCI-H460)	GI50 (NCI/ADR-RES)	GI50 (PC-3)	GI50 (RPMI-8226)	GI50 (SF-268)	GI50 (SK-OV-3)	GI50 (T47D)	GI50 (TK-10)	GI50 (U-251)	GI50 (UACC-257)	GI50 (UACC-62)
CCOC(=O)/C=C(\C)Sc1cc(O)c2ccccc2c1O	28.1 µM (inactive)	8.97 µM (inactive)	6.47 µM (inactive)	17.4 µM	22.2 µM (inactive)	12 µM (inactive)	2.65 µM (inactive)	25.9 µM (inactive)	30.4 µM (inactive)	19.5 µM (inactive)	25.3 µM (inactive)	26.4 µM (inactive)	24.8 µM (inactive)	11 µM (inactive)	34.4 µM (inactive)	2.94 µM (inactive)	23.7 µM (inactive)	20.3 µM (inactive)	18.8 µM (inactive)	31.1 µM (inactive)
ON[C@H]1C[C@@H](n2cnc3c(NC4CC4)ncnc32)[C@H](O)[C@@H]1O	> 100 µM (inactive)	> 100 µM (inactive)	> 100 µM (inactive)	> 100 µM	> 100 µM (inactive)	> 100 µM (inactive)	> 100 µM (inactive)	> 100 µM (inactive)	> 100 µM (inactive)	> 100 µM (inactive)	> 100 µM (inactive)	> 100 µM (inactive)	> 100 µM (inactive)	> 100 µM (inactive)	> 100 µM (inactive)	> 100 µM (inactive)	> 100 µM (inactive)	> 100 µM (inactive)	> 100 µM (inactive)	> 100 µM (inactive)
O=C(c1ccccc1)c1c(-c2ccccc2)n(-c2ccccc2)[nH]c(=O)c1=O	> 100 µM (inactive)	> 100 µM (inactive)	> 100 µM (inactive)	78.2 µM	> 100 µM (inactive)	54.5 µM (inactive)	28.2 µM (inactive)	16.5 µM (inactive)	75 µM (inactive)	44.7 µM (inactive)	62.4 µM (inactive)	18.9 µM (inactive)	27.5 µM (inactive)	48.6 µM (inactive)	34.2 µM (inactive)	> 100 µM (inactive)	42.5 µM (inactive)	44.5 µM (inactive)	70.1 µM (inactive)	12.3 µM (inactive)
CCCCCC(=O)N[C@@H](c1ccccc1)C(O)C(=O)OC1C[C@@]2(O)C(OC(=O)c3ccccc3)C3[C@](C)(C(=O)[C@H](O)C(=C1C)C2(C)C)C(OC1OCC(O)C(O)C1O)C[C@H]1OC[C@@]31OC(C)=O (stereo not given in full)	7.24 µM (inactive)	1.6 µM (inactive)	0.516 µM (active)	> 100 µM	1.19 µM (inactive)	3.99 µM (inactive)	0.202 µM (active)	> 100 µM (inactive)	3.68 µM (inactive)	0.757 µM (active)	> 100 µM (inactive)	1.29 µM (inactive)	0.486 µM (active)	2.32 µM (inactive)	3.04 µM (inactive)	1.76 µM (inactive)	63.2 µM (inactive)	1.64 µM (inactive)	> 100 µM (inactive)	3.57 µM (inactive)
COc1cc([C@@H]2OC[C@@H]3C(c4cc(OC)c5c(c4)OCO5)OC[C@@H]32)cc(OC)c1OC (stereo not given in full)	> 100 µM (inactive)	> 100 µM (inactive)	> 100 µM (inactive)	43.3 µM	42.2 µM (inactive)	> 100 µM (inactive)	> 100 µM (inactive)	> 100 µM (inactive)	> 100 µM (inactive)	> 100 µM (inactive)	31.6 µM (inactive)	50.1 µM (inactive)	49.5 µM (inactive)	> 100 µM (inactive)	> 100 µM (inactive)	46.1 µM (inactive)	> 100 µM (inactive)	> 100 µM (inactive)	> 100 µM (inactive)	49.1 µM (inactive)
